Consider 88 molecules from patent US20190110476A1, “NOVEL ISOTHIAZOLAMIDES, PROCESSES FOR THEIR PREPARATION AND THEIR USE AS FUNGICIDES” (priority 2014, published 2019).

The structures appear in SMILES notation. Marks after values point to notes of the source that are not given here.

This data set can be described thus: Measurement of LogP values by HPLC on reversed phase columns (EEC directive 79/831 Annex V.A8). It counts as physicochemical. Here is the method: The abbreviations and numerations of the substituent positions used in the context of the present invention and in the following Tables are explained in detail in the section Examples hereinafter. Also, the LogP values indicated in the following Tables are explained in detail in the section Examples hereinafter. In case LogP values for different diastereoisomers of a specific compound are […], said LogP values are […] by a “+”. […] Measurement of LogP values was performed according to EEC directive 79/831 Annex V.A8 by HPLC (High Performance Liquid Chromatography) on reversed phase columns with the following methods: […] Lambda-max-values were determined using UV-spectra from 200 nm to 400 nm and the peak values of the chromatographic signals
For the molecule `COc1ccc(CN(C)c2nsc(C(=O)N[C@@H](C)C3CCCCC3)c2Cl)cc1` [I-087], the LogP is 5.51[a].

On to `COc1ccc(CN(C)c2nsc(C(=O)NCc3ccccc3F)c2Cl)cc1` [I-088], for which the LogP is 4.21[a].

On to `Nc1nsc(C(=O)NCC2=CCCCC2)c1Cl` [I-089], for which the LogP was 2.30[a].

For `C[C@H](NC(=O)c1snc(NC(=O)C2CC2)c1Cl)C1CCCCC1` [I-090], the LogP was 2.99[a].

In the case of `C[C@H](NC(=O)c1snc(NC(=O)c2ccccc2)c1Cl)C1CCCCC1` [I-091], the LogP was 3.64[a].

`O=C(NCc1ccccc1F)c1snc(NC(=O)C2CC2)c1Cl` [I-093]: the LogP was 2.12[a].

Turning to `CC(=O)N(C(C)=O)c1nsc(C(=O)N[C@@H](C)C2CCCCC2)c1Cl` [I-094], the LogP is 3.73[a].

With `CC(=O)Nc1nsc(C(=O)N[C@@H](C)C2CCCCC2)c1Cl` [I-097], the LogP was 2.51[a].

Regarding `COc1ccc(CNc2nsc(C(=O)NCC3CCCCC3)c2Cl)cc1` [I-098], the LogP was 4.20[a].

As for `COc1ccc(CNC(=O)c2cc(N)ns2)cn1` [I-099], the LogP was 0.86[a].

As for `CC(=O)Nc1nsc(C(=O)NCc2ccccc2F)c1Cl` [I-100], the LogP was 1.70[a].

On to `CC(=O)N(C(C)=O)c1nsc(C(=O)NCc2ccccc2F)c1Cl` [I-101], for which the LogP was 2.64[a].

For the molecule `COc1ccc(CNC(=O)c2snc(NCc3ccc(OC)cc3)c2Cl)cc1` [I-102], the LogP is 3.46[a].

With `C[C@H](NC(=O)c1snc(N(S(C)(=O)=O)S(C)(=O)=O)c1Cl)C1CCCCC1` [I-103], the LogP was 3.76[a].

Consider `Cc1c(N)nsc1C(=O)NCc1ccc(C(F)(F)F)cc1F` [I-104], for which the LogP is 2.18[a].

On to `COc1ccc(CNc2nsc(C(=O)NCC3(O)CCCCC3)c2Cl)cc1` [I-105], for which the LogP is 3.09[a].

Take `COc1ccc(CNc2nsc(C(=O)NCC3CCCC(C(F)(F)F)C3)c2Cl)cc1` (stereo not shown) [I-106]: the LogP was 4.33[a].

`COc1ccc(CNc2nsc(C(=O)NCC3CCC(C(F)(F)F)CC3)c2Cl)cc1` (stereo not shown) [I-107]: the LogP was 4.30[a].

In the case of `COC(=O)Nc1nsc(C(=O)N[C@@H](C)C2CCCCC2)c1Cl` [I-108], the LogP is 2.84[a].

Turning to `CCC(=O)Nc1nsc(C(=O)NCC2CCCCC2)c1Cl` [I-109], the LogP was 2.50[a].

With `Cc1c(N)nsc1C(=O)NCc1ccc(Cl)nc1` [I-110], the LogP was 1.09[a].

Take `COc1ccc(CNc2nsc(C(=O)NC3CCc4ccccc43)c2Cl)cc1` (stereo not shown) [I-111]: the LogP was 4.04[a].

With `COc1ccc(CNc2nsc(C(=O)NC(C)c3ccccc3Cl)c2Cl)cc1` (stereo not shown) [I-112], the LogP was 4.16[a].

`COc1ccc(CNc2nsc(C(=O)NC3(C4CCCCC4)CC3)c2Cl)cc1` [I-113]: the LogP is 4.69[a].

Regarding `COc1ccc(CNC(=O)c2snc(N)c2Cl)cn1` [I-114], the LogP was 1.23[a].

As to `Nc1nsc(C(=O)NC2CC2)c1Cl` [I-115], the LogP is 0.84[a].

`Cc1cc(C)c(CN(C(=O)c2snc(N)c2Cl)C2CC2)c(C)c1` [I-116]: the LogP is 3.46[a].

As for `Cc1cc(C)cc(CN(C(=O)c2snc(N)c2Cl)C2CC2)c1` [I-117], the LogP was 3.15[a].

For the molecule `CC(C)c1ccccc1CN(C(=O)c1snc(N)c1Cl)C1CC1` [I-118], the LogP was 3.33[a].

In the case of `Cc1ccc(C)c(CN(C(=O)c2snc(N)c2Cl)C2CC2)c1` [I-119], the LogP is 3.04[a].

On to `Nc1nsc(C(=O)NCc2cccc(F)c2F)c1Cl` [I-120], for which the LogP was 1.91[a].

With `Nc1nsc(C(=O)NCc2ccc(F)c(F)c2F)c1Cl` [I-121], the LogP is 2.09[a].

As for `Nc1nsc(C(=O)NCc2ccc(Cl)nc2)c1Cl` [I-122], the LogP was 1.31[a].

Turning to `Cc1ccc(CNC(=O)c2snc(N)c2Cl)c(F)c1F` [I-123], the LogP is 2.26[a].

As to `Nc1nsc(C(=O)NCc2ccccc2C(F)F)c1Cl` [I-124], the LogP is 2.01[a].

With `Nc1nsc(C(=O)NCc2ccc(F)c(F)c2)c1Cl` [I-125], the LogP is 1.93[a].

Take `COc1ccc(CNC(=O)c2snc(N)c2Cl)c(F)c1` [I-126]: the LogP is 1.88[a].

For the molecule `Cc1ccc(F)cc1CNC(=O)c1snc(N)c1Cl` [I-127], the LogP was 2.08[a].

`Nc1nsc(C(=O)NCc2c(F)cccc2F)c1Cl` [I-128]: the LogP is 1.81[a].

Regarding `Nc1nsc(C(=O)NCc2c(F)ccc(F)c2F)c1Cl` [I-129], the LogP is 1.91[a].

Consider `Nc1nsc(C(=O)NCc2cc(F)cc(F)c2F)c1Cl` [I-130], for which the LogP was 2.03[a].

As to `Nc1nsc(C(=O)NCc2cc(F)c(F)c(F)c2)c1Cl` [I-131], the LogP is 2.13[a].

Take `Nc1nsc(C(=O)NCc2c(F)cccc2Cl)c1Cl` [I-132]: the LogP was 2.06[a].

For the molecule `Nc1nsc(C(=O)NCc2ccc(C(F)F)cc2)c1Cl` [I-133], the LogP was 1.91[a].

In the case of `Nc1nsc(C(=O)NCc2c(F)cc(F)cc2F)c1Cl` [I-134], the LogP was 1.96[a].

Consider `C#CCOC(=O)N(C(=O)OCC#C)c1nsc(C(=O)N[C@@H](C)C2CCCCC2)c1Cl` [I-135], for which the LogP is 3.96[a].

As to `COc1ccc(CNC(=O)c2snc(N)c2C)cn1` [I-136], the LogP is 0.96[a].

For `C#CCOC(=O)Nc1nsc(C(=O)N[C@@H](C)C2CCCCC2)c1Cl` [I-137], the LogP is 3.17[a].

Turning to `Nc1nsc(C(=O)NCC2(O)CCCCC2)c1Cl` [I-138], the LogP was 1.51[a].

With `Nc1nsc(C(=O)NCC2CCCC(C(F)(F)F)C2)c1Cl` (stereo not shown) [I-139], the LogP was 2.66[a].

Consider `Nc1nsc(C(=O)NC2CCc3ccccc32)c1Cl` (stereo not shown) [I-140], for which the LogP is 2.30[a].

In the case of `Nc1nsc(C(=O)NCC2CCC(C(F)(F)F)CC2)c1Cl` (stereo not shown) [I-141], the LogP was 2.71[a].

As to `CC(NC(=O)c1snc(N)c1Cl)c1ccccc1Cl` (stereo not shown) [I-142], the LogP was 2.46[a].

As to `Nc1nsc(C(=O)NC2(C3CCCCC3)CC2)c1Cl` [I-143], the LogP was 2.82[a].

On to `Cc1ccc(CNC(=O)c2snc(N)c2C)c(F)c1` [I-145], for which the LogP was 1.81[a].

With `Cc1c(N)nsc1C(=O)NCc1c(F)cccc1F` [I-146], the LogP was 1.49[a].

As to `Cc1c(N)nsc1C(=O)NCc1cccc(F)c1F` [I-147], the LogP is 1.64[a].

For the molecule `Cc1c(N)nsc1C(=O)NCc1ccc(F)c(F)c1` [I-149], the LogP is 1.69[a].

`Cc1c(N)nsc1C(=O)NCc1ccc(C#N)cc1F` [I-150]: the LogP was 1.35[a].

As to `Cc1cc(C)c(CN(C(=O)c2snc(N)c2Cl)C2CC2)cc1C` [I-151], the LogP is 3.39[a].

For `Cc1ccc(CN(C(=O)c2snc(N)c2Cl)C2CC2)c(C)c1` [I-152], the LogP is 3.09[a].

Consider `CCc1ccccc1CN(C(=O)c1snc(N)c1Cl)C1CC1` [I-153], for which the LogP is 3.04[a].

In the case of `Cc1cccc(C)c1CN(C(=O)c1snc(N)c1Cl)C1CC1` [I-154], the LogP was 3.02[a].

Take `Cc1c(N)nsc1C(=O)NCc1ccc(C(F)F)cc1` [I-156]: the LogP was 1.66[a].

Consider `Cc1c(N)nsc1C(=O)NCc1ccccc1C(F)F` [I-157], for which the LogP was 1.74[a].

As for `Cc1c(N)nsc1C(=O)NCc1ccc(Cl)cc1F` [I-159], the LogP is 2.00[a].

With `O=C(NCc1ncc(C(F)(F)F)cc1Cl)c1cc(N(Cc2ccccc2)Cc2ccccc2)ns1` [I-162], the LogP was 4.98[a].

With `Cc1c(CNC(=O)c2snc(N)c2Cl)ccc(F)c1F` [I-163], the LogP was 2.23[a].

On to `Cc1ccc(CNC(=O)c2snc(N)c2Cl)c(F)c1` [I-164], for which the LogP is 2.18[a].

As for `Nc1cc(C(=O)NCc2c(F)ccc(F)c2F)sn1` [I-165], the LogP was 1.51[a].

`Nc1cc(C(=O)NCc2ccc(F)c(F)c2)sn1` [I-166]: the LogP was 1.54[a].

On to `CC(=O)Nc1nsc(C(=O)NCC2CCCCC2)c1Cl` [I-167], for which the LogP was 2.14[a].

Take `O=C(Nc1nsc(C(=O)NCC2CCCCC2)c1Cl)c1ccccc1` [I-168]: the LogP is 3.19[a].

With `CCCC(=O)Nc1nsc(C(=O)NCC2CCCCC2)c1Cl` [I-170], the LogP was 2.84[a].

For the molecule `COc1ccc(CNC(=O)c2cc(N)ns2)c(F)c1` [I-171], the LogP was 1.48[a].

With `CC(C)(C)C(=O)Nc1nsc(C(=O)NCC2CCCCC2)c1Cl` [I-172], the LogP is 3.18[a].

`Nc1cc(C(=O)NCc2ccc(Cl)cc2F)sn1` [I-179]: the LogP is 1.82[a].

Regarding `Nc1cc(C(=O)NCc2c(F)cc(F)cc2F)sn1` [I-180], the LogP was 1.50[a].

On to `Nc1nsc(C(=O)NCc2ccc(Cl)cc2F)c1Cl` [I-181], for which the LogP was 2.40[a].

For the molecule `Nc1nsc(C(=O)N(Cc2ccccc2)C2CC2)c1Cl` [I-183], the LogP is 2.41[a].

Take `CCc1cccc(C)c1CN(C(=O)c1snc(N)c1Cl)C1CC1` [I-184]: the LogP is 3.35[a].

As for `CS(=O)(=O)N(c1nsc(C(=O)NCc2ccccc2F)c1Cl)S(C)(=O)=O` [I-185], the LogP was 2.80[a].

`O=C(NCc1ncc(C(F)(F)F)cc1Cl)c1snc(N(Cc2ccccc2)Cc2ccccc2)c1Br` [I-200]: the LogP is 6.06[a].

As for `N#Cc1ccc(CNC(=O)c2snc(N)c2Cl)c(F)c1` [I-202], the LogP was 1.64[a].

Take `Nc1nsc(C(=O)N(Cc2c(Cl)cccc2Cl)C2CC2)c1Cl` [I-208]: the LogP is 3.02[a].

Take `Nc1nsc(C(=O)N(Cc2ccc(Cl)cc2Cl)C2CC2)c1Cl` [I-209]: the LogP is 3.37[a].

As for `Nc1nsc(C(=O)N(Cc2c(F)cccc2Cl)C2CC2)c1Cl` [I-210], the LogP is 2.73[a].

With `Nc1nsc(C(=O)N(Cc2ccc(Cl)cc2Cl)C2CCC2)c1Cl` [I-211], the LogP is 3.85[a].
